Source: the NIST ThermoML archive (doi:10.1016/j.tca.2011.06.003)

Experiment: xn = mol fraction of the nth substance listed
Conditions: 101 kPa, Liquid; for speed of sound: Sing-around technique in a fixed-path interferometer; for mass density: Vibrating tube method

NCCNCCN [di(2-aminoethyl)amine] + CCCCO
Conditions | mass density, 293.15 K [kg/m3] | mass density, 298.15 K [kg/m3] | mass density, 303.15 K [kg/m3] | speed of sound, 293.15 K [m/s] | speed of sound, 298.15 K [m/s] | speed of sound, 303.15 K [m/s] | viscosity, 298.15 K [mPa·s]
x1 = 0.0517 | 821.995 | 818.115 | 814.209 | 1288 | 1271 | 1254.2 | 3.066
x1 = 0.1085 | 834.306 | 830.363 | 826.401 | 1319.9 | 1302.9 | 1285.9 | 3.551
x1 = 0.153 | 843.084 | 839.101 | 835.096 | 1343.3 | 1327.1 | 1309.9 | 3.907
x1 = 0.2024 | 852.085 | 848.068 | 844.036 | 1369.5 | 1351.9 | 1335.1 | 4.256
x1 = 0.2524 | 860.585 | 856.54 | 852.484 | 1393.7 | 1376.5 | 1359.6 | 4.526
x1 = 0.3079 | 869.265 | 865.207 | 861.136 | 1419.6 | 1402.5 | 1385.5 | 4.772
x1 = 0.4082 | 883.406 | 879.335 | 875.244 | 1464.1 | 1446.5 | 1429.3 | 5.076
x1 = 0.5013 | 895.464 | 891.374 | – | 1502.4 | 1484.6 | 1467.1 | 5.214
x1 = 0.6067 | 908.152 | 904.038 | – | 1543.5 | 1525.4 | 1507.7 | 5.317
x1 = 0.7079 | 919.755 | 915.617 | – | 1581.6 | 1562.9 | 1545.1 | 5.331
x1 = 0.8 | 929.638 | 925.474 | – | 1616.5 | 1597.5 | 1579.2 | 5.368
x1 = 0.8548 | 935.634 | 931.448 | – | 1637 | 1617.8 | 1598.6 | 5.433
x1 = 0.9075 | 941.042 | 936.842 | – | 1656.6 | 1637.4 | 1617.5 | 5.485
x1 = 0.9525 | 945.451 | 941.233 | – | 1673.3 | 1653.8 | 1633.6 | 5.562
